Results on 8 molecules are retold here after patent publication US20230133132A1, “NAMPT MODULATORS” (Cytokinetics, Inc., priority 2020, published 2023).

Assay [1] addresses T1, endogenous NAMPT (Homo sapiens, UniProt P43490).
T1 construct: stimulate the endogenous NAMPT in a native cellular environment; endogenous in cells; host or cells: SH-SY5Y neuroblastoma cells
Nature of the assay: Cellular NAD+ modulation assay in SH-SY5Y cells. Particulars: 40 hours. The format is cell-based. The procedure: The compounds described herein were also assayed for their ability to stimulate the endogenous NAMPT in a native cellular environment in the cellular NAD+ modulation assay, which measures the ability of the compound to modulate cellular NAD levels. Increased levels of NAD are expected by compounds that permeate the cells and activate the catalytic activity of the endogenous NAMPT.
Neuroblastoma SH-SY5Y cells were grown in 1:1 mixture of Eagle's Minimum Essential Medium and F12 Medium, along with 10% fetal bovine serum, in a humidified incubator with an atmosphere of 95% air and 5% C02 at 37° C. The assays were initiated by plating 20 μL of SH-SY5Y cells in culture medium with 0.1% fetal bovine serum, at a density of 5000 cells per well to a 384-well Corning™ BioCoat™ Poly-D-Lysine Multiwell Plates. The plates were incubated in the 37° C. incubators for a period of 5 hours. Compounds in DMSO were added to the plates in a volume of 120 nL using the Labcyte Echo Liquid Handlers. 5 μL of a 1.5 uM Doxorubicin solution in assay medium is added to each well. The plates are then incubated for 40 hours. 30 μL of a readout-solution containing 0.2 U/mL Diaphorase enzyme, 40 uM resazurin, 10 uM FMN, 0.8 U/mL Alcohol dehydrogenase, 3% ethanol, 0.4 mg/mL bovine serum albumin, 0.2% Triton X-100 in 100 mM Tris-HCl, 30 mM EDTA, pH 8.4. The plates were read for fluorescence (Excitation/Emission=540 nm/590 nm) using an EnVision plate reader after 60 mins of incubation at ambient temperature.

Assay [2] addresses human NAMPT (Homo sapiens, UniProt P43490). Kind of assay: Human recombinant enzyme assay (NMN fluorescence biochemical assay). The procedure:
Compounds described herein were assayed for their ability to stimulate the synthesis of nicotinamide mononucleotide (NMN) by the enzyme NAMPT. The human recombinant enzyme assay measures the activation of the enzyme activity by compounds using recombinant enzyme and substrates in a buffered cell-free system. The assay conditions closely mimic cellular environments. Dose responses were measured using an assay to detect the formation of nicotinamide mono-nucleotide. All experiments were performed in the 384-well format. Generally, 0.5 μL of DMSO containing varying concentrations of the test compound was mixed with 10 μL of the enzyme reagent solution. Enzyme reactions were initiated with the addition of 10 μL of a solution containing the substrates. The final assay conditions were as follows: 6 nM human NAMPT, 2.5 mM ATP, 20 μM PRPP and 150 μM nicotinamide in 50 mM HEPES, pH 7.2, 1 mM DTT, 1 mM CHAPS 50 mM NaCl, 100 mM MgCl2. Following an incubation of 60 min at ambient temperature, 10 μL of 20% acetophenone in DMSO was added, followed by 10 μL of 2 M KOH and 40 μL of formic acid. The plates were read for fluorescence (Excitation/Emission=355 nm/460 nm) using an EnVision plate reader after 40 mins of incubation at ambient temperature.

Setting [3] is: doxorubicin added, cellular NAD readout.
[4] abbreviates: 6 nM human NAMPT, 60 min, NMN formation by fluorescence.
The mark [5] stands for this setting: recombinant human NAMPT, NMN fluorescence, 60 min.

pEC50: −log10 of the molar value.

T1 sequence (P43490 whole entry): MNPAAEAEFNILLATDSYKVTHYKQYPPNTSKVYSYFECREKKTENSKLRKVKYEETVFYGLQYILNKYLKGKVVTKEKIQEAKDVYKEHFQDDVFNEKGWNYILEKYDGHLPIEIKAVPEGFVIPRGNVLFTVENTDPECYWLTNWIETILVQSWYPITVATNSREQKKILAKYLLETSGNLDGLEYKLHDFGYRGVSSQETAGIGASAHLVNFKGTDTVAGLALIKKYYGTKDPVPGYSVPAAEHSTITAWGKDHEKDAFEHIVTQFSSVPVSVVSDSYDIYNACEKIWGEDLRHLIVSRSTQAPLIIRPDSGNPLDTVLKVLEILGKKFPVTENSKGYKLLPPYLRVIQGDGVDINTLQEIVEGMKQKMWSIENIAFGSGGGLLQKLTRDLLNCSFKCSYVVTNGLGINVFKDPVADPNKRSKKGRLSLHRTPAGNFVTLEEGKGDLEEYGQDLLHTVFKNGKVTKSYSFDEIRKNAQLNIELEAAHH
human NAMPT, sequence (P43490 whole entry): as above

For the molecule `C[C@H](NCc1ccccc1)c1ccc(NC(=O)NCc2ccc(Cl)cc2)cc1` [Compound 40, [(4-{(1S)-1-[benzylamino]ethyl}phenyl)amino]-N-[(4-chlorophenyl)methyl]carboxamide], the AC0.3 result in assay [1] (doxorubicin, class symbols) is on record as “C (AC0.3 values that are greater than 2.5 μM)”. Moreover, the “AC1.4 Human” value in assay [2] (recombinant human NAMPT, NMN fluorescence, 60 min, class symbols) is reported as “A (AC1.4 values that are less than 0.5 μM)”.

With `COc1ccc(CNC(=O)Nc2ccc(CN3CCN(CC(C)(C)O)CC3)cc2)cc1` [Compound 242, 1-(4-((4-(2-hydroxy-2-methylpropyl)piperazin-1-yl)methyl)phenyl)-3-(4-methoxybenzyl)urea], the AC0.3 in assay [1] (setting [3]) was 0.86 µM. Besides, the values for the pEC50 in assay [1] (doxorubicin) and in assay [2] (setting [5]) were 6.10 and 4.97, respectively. Further, the “AC1.4 (the concentration of compounds that generates 40% higher activity over basal)” value in assay [2] (setting [4]) came out at 0.42 µM.

Turning to `CC(C)(O)CN1CCN(Cc2ccc(NC(=O)NCc3ccc(F)cc3)cc2)CC1` [Compound 167, {[(4-fluorophenyl)methyl]amino}-N-(4-{[4-(2-hydroxy-2-methylpropyl)piperazinyl]methyl}phenyl)carboxamide], in assay [1] (setting [3]), the AC0.3 stood at 1.2 µM. For the same molecule, the pEC50 (as a rule, −log10 of the EC50, conventionally taken in molar units) in assay [1] (doxorubicin) is 5.85. In assay [2] (setting [4]), the “AC1.4 (the concentration of compounds that generates 40% higher activity over basal)” value was found to be 0.78 µM; the AC1.4 designation result was “B (AC1.4 values that are between 0.5 μM and 2.5 μM)”. In addition, the pEC50 in assay [2] (setting [5]) was 5.12.

In the case of `CC(C)(O)CN1CCN(Cc2ccc(NC(=O)NCc3cn[nH]c3)cc2)CC1` [Comparator C, reference compound], the pEC50 in assay [1] (doxorubicin) was below 4.70; in assay [2] (setting [5]), 4.45.

For the molecule `CC(C)(O)CN1CCN(Cc2ccc(NC(=O)NCc3cnco3)cc2)CC1` [Comparator D, reference compound], the results for the pEC50 in assay [1] (doxorubicin) and in assay [2] (setting [5]) were below 4.70 and 4.44, respectively.

Regarding `CC(C)(O)CN1CCN(Cc2ccc(NC(=O)NCc3ccncc3)cc2)CC1` [Comparator B, reference compound], the pEC50 in assay [1] (doxorubicin) was below 4.70; in assay [2] (setting [5]), 4.71.

Regarding `CC(C)(O)CN1CCN(Cc2ccc(NC(=O)NCc3ccc(Cl)cc3)cc2)CC1` [Compound 36, {[(4-chlorophenyl)methyl]amino}-N-(4-{[4-(2-hydroxy-2-methylpropyl)piperazinyl]methyl}phenyl)carboxamide], in assay [1] (setting [3]), the AC0.3 came to 0.15 µM and the AC0.3 designation result is reported as “A (AC0.3 values that are less than 0.5 μM)”. This molecule showed a pEC50 in assay [1] (doxorubicin) of 6.80. For the same molecule, the “AC1.4 (the concentration of compounds that generates 40% higher activity over basal)” value in assay [2] (setting [4]) was found to be 0.15 µM. In addition, the pEC50 in assay [2] (setting [5]) is 5.51.

Turning to `CC(C)(O)CN1CCN(Cc2ccc(NC(=O)NCc3ccccc3)cc2)CC1` [Comparator A, reference compound], the pEC50 in assay [1] (doxorubicin) is 5.64; in assay [2] (setting [5]), 4.97. In assay [2] (comparison of AC1.4 values), the “potency relative to compounds with a halo or methoxy substituent at the R^1 position, as measured by AC1.4” value is listed as “five to ten times less potent”.
